Values after ≈ are worked out from the molar mass of the structure shown. Values joined by “and” are separate entries in the source; they are usually repeats but may differ in a detail not shown here. Equal entries are not always repeated.
Assays:
[1] = system: Staphylococcus pseudintermedius isolates (MSSP and MRSP); experiment: Disk diffusion and Epsilometer susceptibility testing, Example 6; type: cell-based; settings: 13 MRSP isolates
S. pneumoniae isolates [2] = experiment: Disk diffusion susceptibility (CLSI/EUCAST), Example 5; type: cell-based, Streptococcus pneumoniae
In short: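 Susceptibility to 12 antimicrobials was categorised (S/I/R) using CLSI breakpoints from zones of complete inhibition, read thrice to the nearest millimetre with the mode taken. Incubation was 16–24 h, 37 °C, 5% CO2.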

[3] = system: Staphylococcus aureus T3-129 / Staphylococcus spp. MK1; experiment: Synergy studies, checkerboard method (FIC index); type: cell-based; settings: for FICI: FIC index of antibiotic with NCL812; for Result (interaction with NCL812): antibiotic with NCL812
S. pneumoniae isolates [4] = experiment: MBC, Example 5; type: cell-based, Streptococcus pneumoniae; settings: Streptococcus pneumoniae, isolate D39; Table 28; read-out: MBC
Method: (§1) [Micro-broth dilutions and 96 well trays are prepared by the following method: 90 μL of 4% LHB:CAMHB is aliquotted into all wells using a multichannel pipette. 90 μL of working antimicrobial stocks were no serial diluted down the tray by a 1:2 dilution. Negative broth controls and dilution control were taken into account when planning the set up of a 96 well tray.] 10 μL of bacterial suspension was then added to the appropriate wells in the 96 well tray. Appropriate positive (no antimicrobial), negative (no antimicrobial or bacteria) and negative dilution (a serial dilution control of antimicrobial and broth) controls were included in each assay. […] The MBC was determined by a 99.95% inhibition of S. pneumoniae, taking into account the dilution factor. MICs and MBCs were determined in quadruplicate and the mode was taken as the representative value. The MIC50, MIC90 and MIC range and MBC50, MBC90 and MBC range were determined according to CLSI standards. The MIC50 and MIC90, or MBC50 and MBC90, are defined by the lowest concentrations which, when all the MICs and MBCs of the isolates are arranged from lowest to highest, inhibited the 50th and 90th percentile of the total amount of isolates, respectively.

[5] = system: S. aureus isolates (HA-MRSA, CA-MRSA, methicillin-susceptible staphylococci); experiment: Kirby-Bauer disc diffusion resistotyping, Example 4; type: cell-based, Staphylococcus aureus; settings: for Total isolates resistant (Kirby-Bauer disc diffusion): all isolates (n = 30)
In short: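 CLSI Kirby-Bauer disc diffusion on Mueller-Hinton agar. Overnight SBA cultures (37 °C) were suspended in saline and adjusted to 0.5 McFarland before spreading. Antibiotic discs were read after 24 h at 37 °C.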

S. pneumoniae isolates [6] = experiment: Micro-broth dilution MIC, Example 5; type: cell-based, Streptococcus pneumoniae; settings: Streptococcus pneumoniae, isolate D39; Table 28
Method: For all in vitro assays, fresh pneumococcal isolates were grown overnight (O/N) on horse blood agar (HBA) plates (39 g/L Columbia blood agar base [Oxoid] 5% [v/v] defribinated horse blood [Oxoid] at 37° C. with 5% supplemented CO2). Mueller-Hinton blood agar with 5% defibrinated sheep blood (MHSBA Roseworthy Media and Blood Service) was used for disk diffusion analysis as directed by Clinical Laboratory Standards Institute (CLSI) standards. Pneumococci were routinely grown in broth consisting of 4% lysed horse blood (LHB) with Cation Adjusted Mueller Hinton Broth (CAHMB, [Difco]) at 37° C. with 5% supplemented CO2. […] Isolates were stored in HSB at −80° C.
as §1

S. aureus ATCC29213 = experiment: Broth microdilution MIC, Example 7 (NCL analogues), Table 42; type: cell-based, Staphylococcus aureus; settings: S. aureus ATCC29213, 24 hours
Pseudomonas aeruginosa = experiment: Broth microdilution MIC, Example 7 (NCL812 and analogues); type: cell-based; settings: Pseudomonas #008, 24 hours
Escherichia coli = experiment: as above; type: cell-based; settings: E. coli ATCC25922, 24 hours
E. faecalis #32 = experiment: Broth microdilution MIC, Example 7 (NCL analogues), Table 42; type: cell-based, Enterococcus faecalis; settings: E. faecalis #32, 24 hours
[7] = Methicillin-susceptible staphylococci (n = 10)

Row | Molecule | disk diffusion zone diameter (S. pneumoniae isolates [2]; A66.1) [mm] | disk diffusion zone diameter (S. pneumoniae isolates [2]; D39) [mm] | disk diffusion zone diameter (S. pneumoniae isolates [2]; EF3030) [mm] | disk diffusion zone diameter (S. pneumoniae isolates [2]; L82016) [mm] | disk diffusion zone diameter (S. pneumoniae isolates [2]; P9) [mm] | disk diffusion zone diameter (S. pneumoniae isolates [2]; P21) [mm] | disk diffusion zone diameter (S. pneumoniae isolates [2]; TIGR4) [mm] | disk diffusion zone diameter (S. pneumoniae isolates [2]; WCH16) [mm] | disk diffusion zone diameter (S. pneumoniae isolates [2]; WCH43) [mm] | disk diffusion zone diameter (S. pneumoniae isolates [2]; WCH46) [mm] | disk diffusion zone diameter (S. pneumoniae isolates [2]; WCH57) [mm] | disk diffusion zone diameter (S. pneumoniae isolates [2]; WCH77) [mm] | disk diffusion zone diameter (S. pneumoniae isolates [2]; WCH86) [mm] | disk diffusion zone diameter (S. pneumoniae isolates [2]; WCH89) [mm] | disk diffusion zone diameter (S. pneumoniae isolates [2]; WCH92) [mm] | disk diffusion zone diameter (S. pneumoniae isolates [2]; WCH137) [mm] | MIC (μg/ml) at 24 hours S. aureus ATCC29213 (S. aureus ATCC29213) [µg/mL] | MIC (μg/ml) at 24 hours Pseudomonas #008 (Pseudomonas aeruginosa) [µg/mL] | MIC (μg/ml) at 24 hours E. coli ATCC25922 (Escherichia coli) [µg/mL] | MIC (μg/ml) at 24 hours E. faecalis #32 (E. faecalis #32) [µg/mL] | also measured
1 | O=C(N[C@H](CO)[C@H](O)c1ccc([N+](=O)[O-])cc1)C(Cl)Cl [Chloramphenicol] | 34 | 31 | 29 | 26 | 31 | 35 | 32 | 11 | 26 | 28 | 40 | 36 | 34 | 32 | 32 | 31 |  |  |  |  | MRSP isolates susceptible [1]: 23%; disk diffusion susceptibility category (S. pneumoniae isolates [2]; WCH16 (Table 18)): R; disk diffusion zone diameter (S. pneumoniae isolates [2]; WCH158): 34 mm; disk diffusion zone diameter (S. pneumoniae isolates [2]; WCH184): 29 mm; disk diffusion zone diameter (S. pneumoniae isolates [2]; WCH211): 32 mm; disk diffusion zone diameter (S. pneumoniae isolates [2]; WU2): 30 mm; FICI ([3]; S. aureus strain T3-29): 0.75 and 0.562; Antibiotic MIC Alone ([3]; S. aureus strain T3-29): 8 µg/mL and 4 µg/mL; Result (interaction with NCL812) ([3]; S. aureus strain T3-29): NE (No effect (NE) was defined as 0.5<FICI<4)
2 | CC[C@H]1OC(=O)[C@H](C)[C@@H](O[C@H]2C[C@@](C)(OC)[C@@H](O)[C@H](C)O2)[C@H](C)[C@@H](O[C@@H]2O[C@H](C)C[C@H](N(C)C)[C@H]2O)[C@](C)(O)C[C@@H](C)C(=O)[C@H](C)[C@@H](O)[C@]1(C)O [Erythromycin] | 33 | 35 | 30 | 29 | 32 | 35 | 34 | 34 | 29 | 27 | 41 | 37 | 30 | 35 | 28 | 34 |  |  |  |  | disk diffusion zone diameter (S. pneumoniae isolates [2]; WCH158): 34 mm; disk diffusion zone diameter (S. pneumoniae isolates [2]; WCH184): 10 mm; disk diffusion susceptibility category (S. pneumoniae isolates [2]; WCH184 (Table 19)): R; disk diffusion zone diameter (S. pneumoniae isolates [2]; WCH211): 33 mm; disk diffusion zone diameter (S. pneumoniae isolates [2]; WU2): 34 mm; Resistance status to Erythromycin (S. pneumoniae isolates [2]; isolate D39): Sensitive; MBC (S. pneumoniae isolates [4]): 0.00275 µg/mL (≈ 0.00375 µM); FICI ([3]; S. aureus strain T3-29): 0.75 and 0.562 and 0.5 and 0.531; Antibiotic MIC Alone ([3]; S. aureus strain T3-29): 0.25 µg/mL; Result (interaction with NCL812) ([3]; S. aureus strain T3-29): NE (No effect (NE) was defined as 0.5<FICI<4); isolates resistant (Kirby-Bauer disc diffusion) ([5]; CA-MRSA (n = 10)): 100.00%; isolates resistant (Kirby-Bauer disc diffusion) ([5]; HA-MRSA (n = 10)): 80.00%; isolates resistant (Kirby-Bauer disc diffusion) [5, 7]: 40.00%; Total isolates resistant (Kirby-Bauer disc diffusion) [5]: 73.33%; Total isolates resistant (Kirby-Bauer disc diffusion) ([5]; listed as erythromycin): 73.33%; MIC (S. pneumoniae isolates [6]): 0.00275 µg/mL (≈ 0.00375 µM)
3 | C/C(=N\Nc1cc(N/N=C(\C)c2ccc(Cl)cc2)ncn1)c1ccc(Cl)cc1 [NCL 178] |  |  |  |  |  |  |  |  |  |  |  |  |  |  |  |  | >64 | >64 | >64 | >64 | 
4 | Nc1nc(N/N=C/c2ccc(Cl)cc2)cc(N/N=C/c2ccc(Cl)cc2)n1 [NCL 179] |  |  |  |  |  |  |  |  |  |  |  |  |  |  |  |  | 4 (≈ 9.99 µM) | >64 | >64 | 8 (≈ 20 µM) | 
5 | OC/C(=N\Nc1cc(N/N=C(\CO)c2ccc(Cl)cc2)ncn1)c1ccc(Cl)cc1 [NCL 180] |  |  |  |  |  |  |  |  |  |  |  |  |  |  |  |  | >64 | >64 | >64 | 64 (≈ 144 µM) | 
6 | Clc1ccc(/C=N/Nc2cc(N/N=C/c3ccc(Cl)cc3)ncn2)cc1 [NCL 181] |  |  |  |  |  |  |  |  |  |  |  |  |  |  |  |  | >64 | >64 | >64 | >64 | 
7 | CC(Nc1cc(Cl)nc(N)n1)c1ccccc1 (centres unmarked) [NCL 182] |  |  |  |  |  |  |  |  |  |  |  |  |  |  |  |  | >64 | >64 | >64 | >64 | 
8 | CN(C)[C@@H]1C(O)=C(C(N)=O)C(=O)[C@@]2(O)C(O)=C3C(=O)c4c(O)cccc4[C@@](C)(O)[C@H]3C[C@@H]12 [Tetracycline] | 32 | 35 | 34 | 32 | 32 | 38 | 35 | 18 | 31 | 30 | 48 | 39 | 31 | 35 | 29 | 37 |  |  |  |  | disk diffusion susceptibility category (S. pneumoniae isolates [2]; WCH16 (Table 19)): R; disk diffusion zone diameter (S. pneumoniae isolates [2]; WCH158): 35 mm; disk diffusion zone diameter (S. pneumoniae isolates [2]; WCH184): 11 mm; disk diffusion susceptibility category (S. pneumoniae isolates [2]; WCH184 (Table 19)): R; disk diffusion zone diameter (S. pneumoniae isolates [2]; WCH211): 36-37 mm; disk diffusion zone diameter (S. pneumoniae isolates [2]; WU2): 34 mm; FICI ([3]; S. aureus strain T3-29): 0.625 and 0.75 and 0.62; Antibiotic MIC Alone ([3]; S. aureus strain T3-29): 0.25 µg/mL and 0.5 µg/mL; Result (interaction with NCL812) ([3]; S. aureus strain T3-29): NE (No effect (NE) was defined as 0.5<FICI<4); isolates resistant (Kirby-Bauer disc diffusion) ([5]; CA-MRSA (n = 10)): 30.00%; isolates resistant (Kirby-Bauer disc diffusion) ([5]; HA-MRSA (n = 10)): 30.00%; isolates resistant (Kirby-Bauer disc diffusion) [5, 7]: 0.00%; Total isolates resistant (Kirby-Bauer disc diffusion) [5]: 20.00%
9 | Gentamicin |  |  |  |  |  |  |  |  |  |  |  |  |  |  |  |  |  |  |  |  | FICI ([3]; Staphylococcus spp. Strain MK1): 0.625 and 0.75 and 0.515; Antibiotic MIC Alone ([3]; Staphylococcus spp. Strain MK1): 1 µg/mL and 0.5 µg/mL; Result (interaction with NCL812) ([3]; Staphylococcus spp. Strain MK1): NE (No effect (NE) was defined as 0.5<FICI<4); isolates resistant (Kirby-Bauer disc diffusion) ([5]; CA-MRSA (n = 10)): 0.00%; isolates resistant (Kirby-Bauer disc diffusion) ([5]; HA-MRSA (n = 10)): 20.00%; isolates resistant (Kirby-Bauer disc diffusion) [5, 7]: 0.00%; Total isolates resistant (Kirby-Bauer disc diffusion) [5]: 20.00%

From patent publication US10253002B2, “Compounds and methods of treating infections” (Neoculi Pty Ltd., priority 2013, dated 2019)
